Measurements published in patent publication US9125862B2, “Methods for the treatment of Prader-Willi-like syndrome or non-organic failure to thrive (NOFITT) feeding disorder using an agonist of the oxytocin receptor” (Institut National de la Sante et de la Rechereche Medicale …, priority 2010, dated 2015).

Experiments:
Magel2 KO neonates = experiment: Injection of oxytocin or vasopressin in Magel2 KO neonates: rescue of feeding and survival; assay type: in vivo, mouse; conditions: AVP injections, whatever the dose injected
Experimental: Three to 5 hours after delivery, wild type pups or pups issued from a cross between an heterozygote (+/−) male with wild type females were temporally removed (10 min) from their mother, weighted and given a single s.c. (in the ventral region at the level of floating ribs) injection (20 μl) of isotonic saline or 2 μg oxytocin (Phoenix Pharmaceuticals. Inc., Catalog No. 051-01) dissolved in isotonic saline (20 μl). […] Following the same protocol, we injected vasopressin (Phoenix Pharmaceuticals. Inc., Catalog No. 065-07) at different doses. At P2, pups were scarified to be genotyped.
The results obtained with the injection of SSR 126768A OTA let us think that we might restore a normal feeding behaviour in Magel2 KO newborns with an OT injection just after birth. Early neonatal manipulation of OT was reported in the literature without alterations of the postnatal development (Cushing, B. S., et Al., 2003; Yamamoto, Y., et al., 2004; Saito, O., et Al., 2007). Initially, 28 wild type newborns were injected with an isotonic saline (20 μl) and 4 of them died at P1. Another cohort of 28 wild type newborns, […] on hypothalamic nuclei one hour after the injection (Cushing, B. S., et Al., 2003; Yamamoto, Y., et al., 2004). We then decided to inject 2 μg of OT in Magel2 KO and wild type newborns, 3 to 5 hours after birth, the time when wild type newborns started to suckle but not the mutant neonates. […] The level of lethality is similar after an injection of saline solution (4/28 dead pups) or oxytocin (3/28 dead pups) and is in the range of lethality normally observed in wild type cohorts. In a second step, ten litters including a total of 37 wild type and 40 Magel2 KO neonates, were injected with an oxytocin solution. At P2, we observed that 95% (35/37) of wild type and 93% (37/40) of Magel2 mutant newborns survived with milk previously detected in their stomach at P1. In parallel, we controlled that the rescue of Magel2 KO neonates was specifically due to the oxytocin injection and not to the injection stress and/or handling of neonates. […]

rats = conditions: cited from earlier work
OTR = conditions: cited from earlier work
[1] = test system: wild-type C57Bl6/J newborns; experiment: Injection of SSR126768A (antagonist of the oxytocin receptor) in wild type newborns: feeding and lethality; assay type: in vivo, mouse
Experimental: A first cohort of C57B16 wild type newborns were removed from their mothers 1-1h30 after their birth and very rapidly were given a single s.c. injection (20 μl) of vehicle control (0.2% ethanol in distilled water) or 3 μg (in 20 μl of 0.2% ethanol in distilled water) of SSR126768A (OTA). […] of C57B16 wild type newborns were injected 12-24 hours after birth. The dose of OTA used was based on previous publications (Serradeil-Le Gal, C., et al., 2004).
We chose to use the Oxytocin antagonist SSR126768A (a gift from C. Serradeil-Le Gal, Sanofi-Synthélabo Recherche, Toulouse, France) because it was already well characterized.
Taking in account all the previous data, we hypothesized that OT deficiency might be responsible for the Magel2 KO phenotype at birth. Consequently, we decided to inject the SSR 126768A compound, a specific OT antagonist (OTA) with high affinity with the OT receptor (Serradeil-Le Gal, C., et al., 2004). We proceeded to a single injection of 3 μg (20 μl) in 68 wild-type C57B16/J newborns (9 litters), 1 to 1.5 hour after birth. In parallel, in the same conditions, we injected the vehicle […] in 48 wild-type C57B16/J newborns (7 litters). Then, 12 (+/−3) hours after the injection time, we observed than 54% (37/68) of newborns injected with OTA had no milk in their stomach versus 4% (2/48) of newborns injected with vehicle. At P1 (24-36 h old), we observed than 48% (33/68) of newborns injected with OTA were dead versus 4% (2/48) of newborns injected with vehicle control. […] Thus, the SSR 126768A OTA at a dose of 3 μg appeared to have a specific effect, preventing the feeding process and leading to death, only when it was injected in a specific window of time after birth, before the suckling activity was initiated. This phenotype simulates the Magel2 KO feeding phenotype at birth.

NC(=O)CC[C@@H]1NC(=O)[C@H](Cc2ccccc2)NC(=O)[C@H](Cc2ccc(O)cc2)NC(=O)[C@@H](N)CSSC[C@@H](C(=O)N2CCC[C@H]2C(=O)N[C@@H](CCCN=C(N)N)C(=O)NCC(N)=O)NC(=O)[C@H](CC(N)=O)NC1=O [AVP, Arginine-Vasopressin]
rescue of the phenotype of Magel2 deficient neonates (Magel2 KO neonates): did not rescue the phenotype

CCN(Cc1cccnc1)C(=O)c1ccc(Cl)c([C@]2(C)C(=O)N(Cc3ccc(OC)cc3OC)c3ccc(Cl)cc32)c1.Cl [SSR126768A, 4-chloro-3-[(3R)-(+)-5-chloro-1-(2,4-dimethoxybenzyl)-3-methyl-2-oxo-2,3-dihydro-1H-indol-3-yl]-N-ethyl-N-(3-pyridylmethyl)-benzamide, hydrochloride]
lethality or secondary effect (rats; 1, 3 or 10 μg/g in rats): without inducing lethality or any strong secondary effect | duration of effect on uterus (rats; after administration of a dose as low as 3 μg/g): 24 h | selectivity (OTR): high selectivity | affinity for OTR (OTR; different species, including mouse): high affinity | survival 48 hours later ([1]; 3 μg in 20 μl injected 12-24 hours after birth, 42 wild-type pups): all of them survived | newborns dead at P1 ([1]; single s.c. injection of 3 μg, 1 to 1.5 hour after birth, P1 (24-36 h old), vehicle 4% (2/48)): 48% | newborns with no milk in their stomach ([1]; single s.c. injection of 3 μg, 1 to 1.5 hour after birth, observed 12 (+/−3) hours after injection, vehicle 4% (2/48)): 54%
